Laboratory results from US20260109732A1, “LIPID AMINES” (ModernaTX, Inc., priority 2021, published 2026).
Where a name gives a salt, the structure may show the parent alone.

Experiments:
[1] = Diameter and PDI from DLS measurements of mRNA nanoparticles with lipid amines; assay type: physicochemical
Method in brief: (§1)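 Ionizable lipid nanoparticles (IL1:DSPC:cholesterol:PEG-DMG-2K) formed by vortex mixing at pH 4, loaded with luciferase or CFTR mRNA at N:P 4.93, neutralized with TRIS pH 8.12, then modified with lipid amine SA50 at pH 7.5. Particle diameter and PDI read by DLS; mRNA encapsulation by Ribogreen assay.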

[2] = Encapsulation of mRNA nanoparticles with lipid amines using Ribogreen assay; assay type: physicochemical
Method in brief: as §1

[3] = system: HeLa cells; test: Luciferase Protein Expression Assay in HeLa Cells; assay type: cell-based, Human; settings: LNPs encapsulating Luciferase mRNA, 25 ng per well, N=4 wells; 5 h serum-free then 24 h; ONE-Glo
Method in brief: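 HeLa cells received LNPs carrying luciferase mRNA (25 ng per well) or PBS in serum-free MEM for 5 h, then complete MEM for a further 24 h. Luciferase then read by ONE-Glo luminescence after lysis and reported as average RLU of 4 replicate wells.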

[4] = system: HeLa cells; test: CFTR Protein Expression Assay in HeLa Cells; assay type: cell-based, Human; settings: LNPs encapsulating CFTR mRNA, N=4 wells; 5 h serum-free then 24 h; immunofluorescence vs PBS control
Method in brief: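 HeLa cells dosed with CFTR mRNA LNPs (70 mM NaCl final buffer matrix) in serum-free MEM for 5 h, then complete MEM for 24 h. Fixed cells immunostained with anti-CFTR monoclonal and Alexa 488 secondary, imaged confocally; CFTR intensity per cell expressed as fold-change versus PBS buffer control, N=4 wells.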

[5] = CFTR mRNA nanoparticle with lipid amine
[6] = Luciferase mRNA nanoparticle modified with lipid amine

| Compound | Diameter (nm) [1, 5] [nm] | PDI [1, 5] | Diameter (nm) [1, 6] [nm] | PDI [1, 6] | % Encapsulation (Ribogreen) [2, 5] [%] | % Encapsulation (Ribogreen) [2, 6] [%] | Average Relative Light Units ± Standard Deviation [3] [Relative Light Units] | Average fold-change in CFTR signal intensity per cell compared to buffer control ± standard deviation [4] [fold-change] |
| --- | --- | --- | --- | --- | --- | --- | --- | --- |
| CC[C@H](CC[C@@H](C)[C@H]1CC[C@H]2[C@@H]3CC=C4C[C@@H](OC(=O)CCCC(=O)N(CCCN)CCCCNCCCN)CC[C@]4(C)[C@H]3CC[C@]12C)C(C)C [SA117, (3S,8S,9S,10R,13R,14S,17R)-17-((2R,5R)-5-ethyl-6-methylheptan-2-yl)-10,13-dimethyl-2,3,4,7,8,9,10,11,12,13,14,15,16,17-tetradecahydro-1H-cyclopenta[a]phenanthren-3-yl 5-((3-aminopropyl)(4-((3-aminopropyl)amino)butyl)amino)-5-oxopentanoate trihydrochloride] | 94.7 | 0.17 | 77 | 0.28 | 98.6 | 99.7 | 10134.1 ± 3860.2 | 4.9 ± 1.2 |
| CC[C@H](CC[C@@H](C)[C@H]1CC[C@H]2[C@@H]3CC=C4C[C@@H](OC(=O)[C@H](C)N(CCCN)CCCCNCCCN)CC[C@]4(C)[C@H]3CC[C@]12C)C(C)C [SA118, (3S,8S,9S,10R,13R,14S,17R)-17-((2R,5R)-5-ethyl-6-methylheptan-2-yl)-10,13-dimethyl-2,3,4,7,8,9,10,11,12,13,14,15,16,17-tetradecahydro-1H-cyclopenta[a]phenanthren-3-yl N-(3-aminopropyl)-N-(4-((3-aminopropyl)amino)butyl)alaninate tetrahydrochloride] | 89.9 | 0.16 | 74 | 0.19 | 97.9 | 99.7 | 12261.7 ± 4328.5 | 9.7 ± 1.2 |
| CC[C@H](CC[C@@H](C)[C@H]1CC[C@H]2[C@@H]3CC=C4C[C@@H](OC(=O)CN(CCCN)CCCCNCCCN)CC[C@]4(C)[C@H]3CC[C@]12C)C(C)C [SA119, (3S,8S,9S,10R,13R,14S,17R)-17-((2R,5R)-5-ethyl-6-methylheptan-2-yl)-10,13-dimethyl-2,3,4,7,8,9,10,11,12,13,14,15,16,17-tetradecahydro-1H-cyclopenta[a]phenanthren-3-yl N-(3-aminopropyl)-N-(4-((3-aminopropyl)amino)butyl)glycinate tetrahydrochloride] | 88.3 | 0.15 | 78 | 0.18 | 98.9 | 99.4 | 18979.6 ± 7864.8 | 5.7 ± 1.0 |
| CC[C@H](CC[C@@H](C)[C@H]1CC[C@H]2[C@@H]3CC=C4C[C@@H](OC(=O)N(CCCN)CCCCN)CC[C@]4(C)[C@H]3CC[C@]12C)C(C)C [SA120, (3S,8S,9S,10R,13R,14S,17R)-17-((2R,5R)-5-Ethyl-6-methylheptan-2-yl)-10,13-dimethyl-2,3,4,7,8,9,10,11,12,13,14,15,16,17-tetradecahydro-1H-cyclopenta[a]phenanthren-3-yl (4-aminobutyl)(3-aminopropyl)carbamate dihydrochloride] | 83.6 | 0.14 | 76 | 0.28 | 97.5 | 99.1 | 34695.5 ± 9492.2 | 16.8 ± 1.1 |
| CC(C)CCC[C@@H](C)[C@H]1CC[C@H]2[C@@H]3CC=C4C[C@@H](OC(=O)CN(CCCCCCCCN)C(=O)CCCCN)CC[C@]4(C)[C@H]3CC[C@]12C [SA122, (3S,8S,9S,10R,13R,14S,17R)-10,13-Dimethyl-17-((R)-6-methylheptan-2-yl)-2,3,4,7,8,9,10,11,12,13,14,15,16,17-tetradecahydro-1H-cyclopenta[a]phenanthren-3-yl N-(8-aminooctyl)-N-(5-aminopentanoyl)glycinate dihydrochloride] | 83.5 | 0.13 | 75 | 0.15 | 98.6 | 99.4 | 29605.6 ± 6326.9 | 14.8 ± 1.1 |
| CC(C)CCC[C@@H](C)[C@H]1CC[C@H]2[C@@H]3CC=C4C[C@@H](OC(=O)CN(CCCCCCCCN)C(=O)CCCCCN)CC[C@]4(C)[C@H]3CC[C@]12C [SA123, (3S,8S,9S,10R,13R,14S,17R)-10,13-dimethyl-17-((R)-6-methylheptan-2-yl)-2,3,4,7,8,9,10,11,12,13,14,15,16,17-tetradecahydro-1H-cyclopenta[a]phenanthren-3-yl N-(6-aminohexanoyl)-N-(8-aminooctyl)glycinate dihydrochloride] | 83.2 | 0.12 | 73 | 0.14 | 99.0 | 99.5 | 28520.5 ± 6429.4 | 14.7 ± 1.0 |
| CC(C)CCC[C@@H](C)[C@H]1CC[C@H]2[C@@H]3CC=C4C[C@@H](OC(=O)N(CCCCNCCC5(N)CC5)CCC5(N)CC5)CC[C@]4(C)[C@H]3CC[C@]12C [SA124, (3S,8S,9S,10R,13R,14S,17R)-10,13-dimethyl-17-((R)-6-methylheptan-2-yl)-2,3,4,7,8,9,10,11,12,13,14,15,16,17-tetradecahydro-1H-cyclopenta[a]phenanthren-3-yl (2-(1-aminocyclopropyl)ethyl)(4-((2-(1-aminocyclopropyl)ethyl)amino)butyl)carbamate trihydrochloride] | 72.0 | 0.10 | 74 | 0.14 | 98.3 | 99.8 | 45805.9 ± 5630.6 | 15.0 ± 1.2 |
| CC(C)CCC[C@@H](C)[C@H]1CC[C@H]2[C@@H]3CC=C4C[C@@H](OC(=O)CCCC(=O)N(CCCCNCCC(C)N)CCC(C)N)CC[C@]4(C)[C@H]3CC[C@]12C.Cl.Cl.Cl (stereo partly drawn) [SA125, (3S,8S,9S,10R,13R,14S,17R)-10,13-dimethyl-17-((R)-6-methylheptan-2-yl)-2,3,4,7,8,9,10,11,12,13,14,15,16,17-tetradecahydro-1H-cyclopenta[a]phenanthren-3-yl 5-((3-aminobutyl)(4-((3-aminobutyl)amino)butyl)amino)-5-oxopentanoate trihydrochloride] | 75.0 | 0.15 | 77 | 0.19 | 99.0 | 99.7 | 15625.8 ± 3399.4 | 14.2 ± 0.9 |
| CC(C)CCC[C@@H](C)[C@H]1CC[C@H]2[C@@H]3CC=C4C[C@@H](OC(=O)N(CCCCNC(C)CC(C)N)C(C)CC(C)N)CC[C@]4(C)[C@H]3CC[C@]12C.Cl.Cl.Cl (stereo partly drawn) [SA126, (3S,8S,9S,10R,13R,14S,17R)-10,13-dimethyl-17-((R)-6-methylheptan-2-yl)-2,3,4,7,8,9,10,11,12,13,14,15,16,17-tetradecahydro-1H-cyclopenta[a]phenanthren-3-yl (4-aminopentan-2-yl)(4-((4-aminopentan-2-yl)amino)butyl)carbamate trihydrochloride] | 79.3 | 0.15 | 75 | 0.18 | 99.4 | 99.7 | 31706.7 ± 7386.3 | 18.2 ± 2.0 |
| CCC(N)CCNCCCCN(CCC(N)CC)C(=O)O[C@H]1CC[C@@]2(C)C(=CC[C@H]3[C@@H]4CC[C@H]([C@H](C)CCCC(C)C)[C@@]4(C)CC[C@@H]32)C1.Cl.Cl.Cl (stereo partly drawn) [SA127, (3S,8S,9S,10R,13R,14S,17R)-10,13-dimethyl-17-((R)-6-methylheptan-2-yl)-2,3,4,7,8,9,10,11,12,13,14,15,16,17-tetradecahydro-1H-cyclopenta[a]phenanthren-3-yl (3-aminopentyl)(4-((3-aminopentyl)amino)butyl)carbamate trihydrochloride] | 74.1 | 0.12 | 74 | 0.17 | 99.5 | 99.7 | 41246.9 ± 5672.4 | 20.1 ± 1.9 |
